Usually inhibition stands for the change of the read-out against control, counted positive when it falls.

Results on one compound are retold here after publication PMC7226483, “Exploring the Synergy between PARP and CHK1 Inhibition in Matched BRCA2 Mutant and Corrected Cells” (Cancers, 2020).

In the assay the target is T1, CHK1 (Cricetulus griseus, UniProt G3I7I8).
T1 construct: gene Chek1
T1 sequence (G3I7I8 1-476): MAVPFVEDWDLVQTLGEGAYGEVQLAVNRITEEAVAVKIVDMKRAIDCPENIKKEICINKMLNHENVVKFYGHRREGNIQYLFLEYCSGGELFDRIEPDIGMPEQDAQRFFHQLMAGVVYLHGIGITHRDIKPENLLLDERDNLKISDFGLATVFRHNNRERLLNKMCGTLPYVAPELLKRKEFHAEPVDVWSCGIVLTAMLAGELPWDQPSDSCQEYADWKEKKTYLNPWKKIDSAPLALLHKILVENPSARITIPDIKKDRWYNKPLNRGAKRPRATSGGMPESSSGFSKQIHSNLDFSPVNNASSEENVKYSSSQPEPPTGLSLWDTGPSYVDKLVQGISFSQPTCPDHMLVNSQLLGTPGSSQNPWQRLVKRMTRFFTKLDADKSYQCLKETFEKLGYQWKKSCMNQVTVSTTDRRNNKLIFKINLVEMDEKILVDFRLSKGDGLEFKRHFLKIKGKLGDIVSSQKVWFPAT
Put plainly: Western blot of CHK1 S296 autophosphorylation in rucaparib-treated V-C8 and V-C8.B2 cells. Format: cell-based. The following applies: read-out: % inhibition at 50 nM. For orientation: Immunoblotting shows a protein as a band on a membrane.

In the case of `Cn1cc(-c2[nH]c3cc(NC(=O)[C@H](N)C4CCCCC4)cc4c3c2C=NNC4=O)cn1` [PF-477736], the inhibition at 0.05 µM was found to be 91.4%.
